According to patent US8236819B2, “Dihydro-[1H]-quinolin-2-one derivatives as RXR agonists for the treatment of dyslipidemia, hypercholesterolemia and diabetes” (Janssen Pharmaceutica N.V., priority 2005, dated 2012):
Several values for one entry are separate records, joined by “and”; a condition that tells them apart may be missing. Equal values may be shown once.

What was measured:
[1] = test system: ABCA1 mRNA in THP-1 cells; experiment: ABCA1 bDNA assay (ABCA1 mRNA induction); format: cell-based, human; details: for EC50 / Emax: Homo sapiens; for EC50: THP-1, THP-1 cells, ABCA1 mRNA induction; for Emax / ABCA1 (% max MX-6054) @0.3 μM / ABCA1 (% max MX-6054) @3 μM: THP-1 cells, relative to max of MX-6054; for Emax: concentration not given
Procedure: THP-1 cells, a human monocytic cell line, were obtained from ATCC and maintained in RPMI (Gibco) supplemented with 10% fetal bovine serum (Gibco), 2 mM L-glutamine and 1% antibiotic-antimycotic in 5% CO2 at 37° C. For ABCA1 mRNA induction assays, the cells were pelleted and resuspended in RPMI supplemented with 0.5% charcoal treated serum (Hyclone), 2 mM glutamine and 1% antibiotic-antimycotic. The cells were plated at a density of 40,000 cells/90 µl and incubated as above for at least 4 hours before the initiation of treatments. Compounds were prepared as 10 mM stocks in DMSO. For treatments, the compounds were diluted in medium and 10 µl of 10× stocks were added to the cells at a final concentration 0.1% DMSO. The cells were incubated for the desired amount of time (usually 18-24 hrs) and then lyzed with 50 µl of Quantigene HV bDNA lysis buffer which also contained the ABCA1 bDNA probes (probe sequences shown below): […]

RXR = molecular target: T1, RXR (Homo sapiens, UniProt P19793); experiment: RXR co-transfection assay (GAL4 fusion, luciferase reporter, HEK293 cells); format: cell-based; details: for RXR co-transfection (% of 2,4-thiazolidinedione, 5-[[3-(1-ethyl-1,2,3,4-tetrahydro-4,4,6-trimethyl-2-oxo-7-quinolinyl)-4-(trifluoro-methoxy)phenyl]methylene]-, (5Z)-): relative to the reference thiazolidinedione
T1 construct: expressed in transfected cells; host or cells: HEK293
T1 sequence (P19793 227-458 limits assumed): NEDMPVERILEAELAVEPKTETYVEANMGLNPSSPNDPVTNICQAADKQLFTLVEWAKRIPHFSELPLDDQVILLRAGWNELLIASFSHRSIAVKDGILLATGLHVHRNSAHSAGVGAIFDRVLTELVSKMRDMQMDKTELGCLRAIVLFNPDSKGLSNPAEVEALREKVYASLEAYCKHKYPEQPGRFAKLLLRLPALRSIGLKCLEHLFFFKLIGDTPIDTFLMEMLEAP
Procedure: The nucleic acid sequence from 676-1464 bp (accession number X52773) encoding the ligand binding domains was subcloned into the pM vector (BD Biosciences Clontech, Palo Alto, Calif.) and were fused with the DNA binding domain of yeast GAL4. HEK293 cells were cultured in DMEM/F12 medium supplemented with 10% FBS and 1% I-glutamine (growth medium). Cells were seeded at a density of 5-10×10^6 cells in 50 ml of growth medium and left overnight. The medium was removed and the cells were washed with 15 ml of OptiMEM serum free medium (Invitrogen Corp). The cells were transfected using OptiMEM serum free medium and DMRIE transfection reagent (Invitrogen Corp). Approximately 10-30 ng of DNA for the different receptors and 5-10 ng of the luciferase reporter (1:1 ratio for RAR and 4:1 ratio for RXR of receptor DNA:reporter DNA) were gently mixed with 51 µl of DMRIE reagent in a total volume of 17 ml of OptiMEM medium. Eighteen hours after transfection, the cells were washed once with growth medium and then incubated for 6 hrs in 30 ml of growth medium. The cells were then trypsinized, and reseeded at a density of 50,000 per well in 96 well plates and left overnight. The medium was replaced with 90 µl of medium containing DMEM/F12 supplemented with 0.5% charcoal-treated FBS (HyClone; Logan, Utah) and 1% glutamine. Compounds or vehicle were added in 10 µl of 10× concentration of compound or vehicle (0.1% dimethyl sulfoxide). The cells were treated for 16-18 hours, lysed and assayed for luciferase activity using the Steady Glo luciferase assay kit (Promega, Madison, Wis.).

SMILES	EC50 [1] [µM]	EC50 (RXR)	RXR co-transfection (% of 2,4-thiazolidinedione, 5-[[3-(1-ethyl-1,2,3,4-tetrahydro-4,4,6-trimethyl-2-oxo-7-quinolinyl)-4-(trifluoro-methoxy)phenyl]methylene]-, (5Z)-) (RXR)	melting point [°C]	Emax [1] [%]	ABCA1 (% max MX-6054) @0.3 μM [1]	ABCA1 (% max MX-6054) @3 μM [1]
CCN1C(=O)CC(C)(C)c2cc(C)c(-c3cc(/C=C/C(=O)O)ccc3OC(F)(F)F)cc21 [Compound 2, 3-[3-(1-Ethyl-4,4,6-trimethyl-2-oxo-1,2,3,4-tetrahydro-quinolin-7-yl)-4-trifluoromethoxy-phenyl]-acrylic acid]	~0.0036	0.001 µM and 0.0025 µM	–	–	81	–	–
Cc1cc2c(cc1-c1cc(/C=C/C(=O)O)ccc1OC(F)(F)F)N(C(C)C)C(=O)CC2(C)C [Compound 4, 3-[3-(1-Isopropyl-4,4,6-trimethyl-2-oxo-1,2,3,4-tetrahydro-quinolin-7-yl)-4-trifluoromethoxy-phenyl]-acrylic acid]	0.01	0.0163 µM	(97%)	–	–	(70.3% @0.3 μM)	–
Cc1cc2c(cc1-c1cc(/C=C/C(=O)O)ccc1OCC(F)(F)F)N(C(C)C)C(=O)CC2(C)C [Compound 11, 3-[3-(1-Isopropyl-4,4,6-trimethyl-2-oxo-1,2,3,4-tetrahydro-quinolin-7-yl)-4-(2,2,2-trifluoro-ethoxy)-phenyl]-acrylic acid]	0.044	0.0231 µM	(64%)	–	–	–	–
CCN1C(=O)CC(C)(C)c2cc(C)c(-c3cc(CCC(=O)O)ccc3OC(F)(F)F)cc21 [Compound 26, 3-[3-(1-Ethyl-4,4,6-trimethyl-2-oxo-1,2,3,4-tetrahydro-quinolin-7-yl)-4-trifluoromethoxy-phenyl]-propionic acid]	0.047	0.0071 µM and 0.0073 µM	–	–	56.8	–	–
COc1ccc(/C=C/C(=O)O)cc1-c1cc2c(cc1C)C(C)(C)CC(=O)N2C(C)C [Compound 12, 3-[3-(1-isopropyl-4,4,6-trimethyl-2-oxo-1,2,3,4-tetrahydro-quinolin-7-yl)-4-methoxy-phenyl]-acrylic acid]	0.51	0.0712 µM and 0.0627 µM and 0.0367 µM	(85%)	–	59	–	–
Cc1cc2c(cc1-c1cc(/C=C/C(=O)O)ccc1OC(F)(F)F)N(C)C(=O)CC2(C)C [Compound 3, 3-[3-(1,4,4,6-Tetramethyl-2-oxo-1,2,3,4-tetrahydro-quinolin-7-yl)-4-trifluoromethoxy-phenyl]-acrylic acid]	0.2	0.0128 µM and 0.0358 µM	–	–	–	–	(56% @3 μM)
CCN1C(=O)CC(C)(C)c2cc(C)c(-c3cc(/C=C(\C)C(=O)O)ccc3OC(F)(F)F)cc21 [Compound 9, 3-[3-(1-Ethyl-4,4,6-trimethyl-2-oxo-1,2,3,4-tetrahydro-quinolin-7-yl)-4-trifluoromethoxy-phenyl]-2-methyl-acrylic acid]	0.1	0.0317 µM and 0.0242 µM	–	–	–	(39.9% @0.3 μM)	–
CCN1C(=O)CC(C)(C)c2cc(C)c(-c3cc(/C=C/C(=O)O)ccc3OCC(F)(F)F)cc21 [Compound 1, 3-[3-(1-Ethyl-4,4,6-trimethyl-2-oxo-1,2,3,4-tetrahydro-quinolin-7-yl)-4-(2,2,2-trifluoro-ethoxy)-phenyl]-acrylic acid]	–	0.0572 µM and 0.0723 µM and 0.0724 µM	–	237 to 241	60	–	–

Further lines, with some results ahead:

EC50 [1] [µM]	EC50 (RXR)	RXR co-transfection (% of 2,4-thiazolidinedione, 5-[[3-(1-ethyl-1,2,3,4-tetrahydro-4,4,6-trimethyl-2-oxo-7-quinolinyl)-4-(trifluoro-methoxy)phenyl]methylene]-, (5Z)-) (RXR)	melting point [°C]	SMILES	Emax [1] [%]	ABCA1 (% max MX-6054) @0.3 μM [1]	ABCA1 (% max MX-6054) @3 μM [1]
0.001	0.0034 µM	(80%)	–	Cc1cc2c(cc1-c1cc(CCC(=O)O)ccc1OC(F)(F)F)N(C(C)C)C(=O)CC2(C)C [Compound 28, 3-[3-(1-Isopropyl-4,4,6-trimethyl-2-oxo-1,2,3,4-tetrahydro-quinolin-7-yl)-4-trifluoromethoxy-phenyl]-propionic acid]	59	–	–
0.886	~0.0509 µM and 0.0272 µM	–	–	CCN1C(=O)CC(C)(C)c2cc(C)c(-c3cc(/C=C\C(=O)O)ccc3OC(F)(F)F)cc21 [Compound 58, 3-[3-(1-Ethyl-4,4,6-trimethyl-2-oxo-1,2,3,4-tetrahydro-quinolin-7-yl)-4-trifluoromethoxy-phenyl]-acrylic acid]	75	–	–
> 1.4	0.144 µM	(108%)	–	Cc1cc2c(cc1-c1cc([C@@H]3C[C@H]3C(=O)O)ccc1OC(F)(F)F)N(C)C(=O)CC2(C)C (racemic) [Compound 42, (□)-2-[3-(1,4,4,6-Tetramethyl-2-oxo-1,2,3,4-tetrahydro-quinolin-7-yl)-4-trifluoromethoxy-phenyl]-cyclopropanecarboxylic acid]	–	–	(38% @3 μM)
0.369	0.0596 µM and 0.0126 µM and 0.0372 µM	–	–	Cc1cc2c(cc1-c1cc(CCC(=O)O)ccc1OCC(F)(F)F)N(C(C)C)C(=O)CC2(C)C [Compound 31, 3-[3-(1-Isopropyl-4,4,6-trimethyl-2-oxo-1,2,3,4-tetrahydro-quinolin-7-yl)-4-(2,2,2-trifluoro-ethoxy)-phenyl]-propionic acid]	45	–	–
> 1	0.0029 µM and 0.0071 µM	–	–	Cc1cc2c(cc1-c1cc([C@@H]3C[C@H]3C(=O)O)ccc1OC(F)(F)F)N(C(C)C)C(=O)CC2(C)C (racemic) [Compound 43, (□)-2-[3-(1-Isopropyl-4,4,6-trimethyl-2-oxo-1,2,3,4-tetrahydro-quinolin-7-yl)-4-trifluoromethoxy-phenyl]-cyclopropanecarboxylic acid]	–	–	(56% @3 μM)
1.52	0.251 µM and 0.164 µM	–	–	COc1ccc([C@@H]2C[C@H]2C(=O)O)cc1-c1cc2c(cc1C)C(C)(C)CC(=O)N2C(C)C (racemic) [Compound 44, (□)-2-[3-(1-Isopropyl-4,4,6-trimethyl-2-oxo-1,2,3,4-tetrahydro-quinolin-7-yl)-4-methoxy-phenyl]-cyclopropanecarboxylic acid]	29	–	–
0.347	0.0463 µM and 0.0291 µM	–	–	CCN1C(=O)CC(C)(C)c2cc(C)c(-c3cc(C(C)CC(=O)O)ccc3OC(F)(F)F)cc21 (stereo not shown) [Compound 30, 3-[3-(1-Ethyl-4,4,6-trimethyl-2-oxo-1,2,3,4-tetrahydro-quinolin-7-yl)-4-trifluoromethoxy-phenyl]-butyric acid]	160	–	–
